# Reference: US20260198497A1, “A BENZENE RING-SUBSTITUTED PYRIMIDINECARBOXYLIC ACID COMPOUND, PREPARATION METHOD THEREFOR, HERBICIDAL COMPOSITION AND APPLICATION THEREOF” (QINGDAO KINGAGROOT CHEMICAL COMPOUND CO., LTD., priority 2023, published 2026)
# Read-outs that look alike come from different tables or passages of the source.
# Tests used:
# Lindernia procumbens = assay: Activity assay of compositions, post-emergence spray of stems and leaves; assay type: in vivo; details: 21 days
# Description: (§1) The required active ingredient B was purchased from a reagent company or a technical material manufacturer or synthesized by a conventional method. The active ingredient A was Compound 74 in Table 1. The technical materials were all dissolved with acetone solvents and diluted with aqueous solution of 0.1% Tween® 80 emulsifier, which should be used immediately after dilution.
# (§2) Weeds were cultivated by a pot culture method. […] Weed seeds with plump and uniform grains were selected, soaked in lukewarm water at 25° C. for 6 hours, and accelerated to germinate in a 28° C. biochemical incubator (in darkness). The weed seeds that had just germinated were evenly placed on the surface of the soil and then covered with 0.5-1 cm soil according to the sizes of seeds.
# (§3) The weeds were cultured in a controllable sunlight greenhouse at 20-30° C., in natural light, and with relative humidity of 57%-72%. The soil was loam with an organic matter content of 1.63%, a pH value of 7.1, alkali-hydrolyzable nitrogen of 84.3 mg/kg, rapidly available phosphorus of 38.5 mg/kg, and rapidly available potassium of 82.1 mg/kg.
# (§4) Each treatment was repeated 4 times for 3 pots. Each pot was seeded with 20 weed seeds.
# (§5) The drugs were applied once in total in the experiment. When at the stage of 1.5-2 leaves, the weeds were thinned out to maintain 10 strains per pot. Thirty strains were kept in each treatment and then continued to be cultured until the Erigeron canadensis reached 10 cm tall and other weeds in their 3-4 leaf stage for further treatment.
# (§6) The well-cultured test materials were evenly placed on a 0.5 m^2 platform and foliage-sprayed by the 3WP-2000-type walking spray tower at a dosage of […] and a spray pressure of 0.3 MPa. After all the drug solution was sprayed, the air valve was closed. And 30 seconds later, the door of the spray tower was opened, and the nutritional bowl was taken out. Next, the air valve was opened, and the spray tube was cleaned by spraying 50 ml of water. The test materials were transferred to and routinely cultured in a greenhouse after the treatment.
# (§7) A method for investigating absolute numbers was employed. The whole seedlings of the survival weeds were cut along the soil surface with a blade, and the fresh weight of the weeds was weighed by an analytical balance. For dead weeds, the fresh weight thereof was considered zero.
# (§8) The investigation was performed 21 days after the treatment for once in total.
# (§9) The theoretical fresh weight inhibition rate of a mixed combination of each treatment was calculated by the Gowing method (E0=X+Y−X*Y/100). Then compared with the measured inhibition rate (E), the type of the combined action of the combination of the two on weeds was evaluated, which was a synergistic effect when E−E0>10; an antagonistic effect when E−E0<−10%; an additional effect when −10≤E−E0≤[…]. An optimal ratio was determined according to factors such as the actual control effects, characteristics of herbicides, balance of the formulation, etc. In the formula, X represents the fresh weight inhibition rate of the active ingredient A in a dosage of P; Y represents the fresh weight inhibition rate of the active ingredient B in a dosage of Q. The statistical results are shown in Table 5 below.
# Monochoria vaginalis [1] = assay: as above; assay type: in vivo; details: 21 days
# Method: as §1, with “The active ingredient A was Compound 74 in Table 1.” left out
# as §2, §3, §4, §5, §6, §7, §8, §9
# Veronica = assay: Post-emergence test on weeds; assay type: in vivo; design: key: 0 = no effect, 9 = completely dead (levels by growth control rate); details: 30 g a.i./ha, 3 weeks after application
# Description: (§10) The criteria for activity levels of plant damage (i.e., growth control rate) are as follows: • Level 9: completely dead; • Level 8: growth control rate is greater than or equal to 90% and less than 100%; • Level 7: growth control rate is greater than or equal to 80% and less than 90%; • Level 6: growth control rate is greater than or equal to 70% and less than 80%; • Level 5: growth control rate is greater than or equal to 50% and less than 70%; • Level 4: growth control rate is greater than or equal to 30% and less than 50%; • Level 3: growth control rate is greater than or equal to 20% and less than 30%; • Level 2: growth control rate is greater than or equal to 10% and less than 20%; • Level 1: growth control rate is less than 10%; • Level 0: no effect.
# (§11) The above growth control rates are fresh weight control rates.
# (§12) Monocotyledonous and dicotyledonous weed seeds (Descurainia sophia, Capsella bursa-pastoris, Abutilon theophrasti, Galium spurium, Stellaria media, Lithospermum arvense, Rorippa indica, Alopecurus aequalis, Alopecurus japonicus, Eleusine indica, Beckmannia syzigachne, Sclerochloa dura, Erigeron canadensis, Phleum paniculatum, Veronica, Bromus japonicus, Aegilops tauschii, Phalaris arundinacea, Amaranthus retroflexus, Chenopodium, Commelina communis, Cichorium endivia, Convolvulus arvensis, Cirsium arvense, Solanum nigrum, Acalypha australis, Digitaria sanguinalis, Echinochloa crusgalli, Setaria viridis, Setaria pumila, Leptochloa chinensis, Monochoria vaginalis, Sagittaria trifolia, Schoenoplectiella juncoides, Cyperus rotundus, Cyperus iria, Cyperus difformis, Fimbristylis, Portulaca oleracea, Xanthium sibiricum, Ipomoea nil, Eschenbachia japonica, etc.) and major crop seeds (wheat, maize, paddy rice, soybean, cotton, oilseed rape, millet, sorghum, potato, sesame, castor plant, Chinese cabbage, radish, etc.) were placed in plastic pots filled with soil and then covered with 0.5-2 cm of soil to allow them to grow in a favorable greenhouse environment. Two weeks after sowing, the test plants were treated at the stage of 2-3 leaves. The test compounds of the present invention were individually dissolved with acetone, then added with Tween® 80, with 1.5 L/ha of methyl oleate emulsifiable concentrate as a synergist, diluted into solution of a certain concentration using a certain amount of water, and sprayed to plants using a spray tower. After drug application, the experimental results on weeds were collected after 3 weeks of cultivation in a greenhouse. The compounds were applied at 120, 60, 30, and 15 g a.i./ha in triplicate, and the results were averaged.
# Chinese cabbage = assay: Post-emergence test, crop safety; details: in vivo, 3 weeks
# Description: as §10, §11, §12
# Maize = assay: Post-emergence test, crop safety; details: in vivo, 3 weeks
# Description: as §10, §11, §12
# Oilseed rape = assay: Post-emergence test, crop safety; details: in vivo, 3 weeks
# Description: as §10, §11, §12
# Paddy rice = assay: Post-emergence test, crop safety; details: in vivo, 3 weeks
# Description: as §10, §11, §12
# Radish = assay: Post-emergence test, crop safety; details: in vivo, 3 weeks
# Description: as §10, §11, §12
# Wheat = assay: Post-emergence test, crop safety; details: in vivo, 3 weeks
# Description: as §10, §11, §12
# Bidens tripartita = assay: Control effect evaluation on weeds in paddy fields; assay type: in vivo; details: 75 g a.i./ha, paddy pot, 14th day after treatment, seeds resistant to pyrazosulfuron-ethyl
# Description: as §10, §11
# (§13) After paddy field soil was loaded into a 1/1,000,000 ha pot, the seeds of Monochoria vaginalis, Pontederia korsakowii and Bidens tripartita were sowed and gently covered with soil, then left to stand in a greenhouse with water storage of 0.5-1 cm deep. The tuber of Sagittaria trifolia was planted on the next day or 2 days later. The water storage was kept at a depth of 3-4 cm thereafter. When the Monochoria vaginalis, Pontederia korsakowii and Bidens tripartita reached their 0.5-leaf stages and the Sagittaria trifolia reached the primary leaf stage, WP or SC aqueous dilutions of the compounds of the present invention formulated according to customary formulation methods were homogeneously dripped for treatment to the specified effective amount using pipettes.
# (§14) The effects were evaluated according to the above-mentioned criteria for activity levels.
# Monochoria vaginalis [2] = assay: Control effect evaluation on weeds in paddy fields; assay type: in vivo; details: 75 g a.i./ha, paddy pot, 14th day after treatment, seeds resistant to pyrazosulfuron-ethyl
# Description: as §10, §11, §13, §14
# Pontederia korsakowii = assay: Control effect evaluation on weeds in paddy fields; assay type: in vivo; details: 75 g a.i./ha, paddy pot, 14th day after treatment, seeds resistant to pyrazosulfuron-ethyl
# Description: as §10, §11, §13, §14
# [3] = test system: paddy rice (japonica rice); details: in vivo
# Description: as §10, §11
# In addition, after being loaded into the 1/1,000,000 ha pot, the paddy field soil was leveled to keep the water storage at a depth of 3-4 cm. The paddy rice (japonica rice) at 3-leaf stage was transplanted at a transplanting depth of 3 cm on the next day. The compounds of the present invention were treated in the same manner as above on the 5th day after the transplantation.
# as §14
SMILES,Control effect of B applied alone in a corresponding dose (%) (Lindernia procumbens; B 7.5 g a.i./ha),Control effect of B applied alone in a corresponding dose (%) (Lindernia procumbens; B 15 g a.i./ha),Control effect of B applied alone in a corresponding dose (%) (Monochoria vaginalis [1]; B 150 g a.i./ha),Control effect of B applied alone in a corresponding dose (%) (Monochoria vaginalis [1]; B 300 g a.i./ha),"activity level of plant damage (growth control rate), Veronica (Veronica)","activity level of plant damage (growth control rate), Chinese cabbage (Chinese cabbage)","activity level of plant damage (growth control rate), Maize (Maize)","activity level of plant damage (growth control rate), Oilseed rape (Oilseed rape)","activity level of plant damage (growth control rate), Paddy rice (Paddy rice)","activity level of plant damage (growth control rate), Radish (Radish)","activity level of plant damage (growth control rate), Wheat (Wheat)","activity level, Bidens tripartita (Bidens tripartita)","activity level, Monochoria vaginalis (Monochoria vaginalis [2])","activity level, Pontederia korsakowii (Pontederia korsakowii)","activity level, Paddy rice ([3]; japonica, paddy rice, 21 days)","activity level, Paddy rice [3]",Control effect of B applied alone in a corresponding dose (%) (Monochoria vaginalis [1]; B 600 g a.i./ha),Control effect of B applied alone in a corresponding dose (%) (Monochoria vaginalis [1]; B 1200 g a.i./ha)
CC(C)C12CCC(C)(O1)C(OCc1c(F)cccc1Br)C2 (stereo not drawn),42.8,60.7,–,–,–,–,–,–,–,–,–,–,–,–,–,–,–,–
"CC(C)N1C(=O)c2ccccc2NS1(=O)=O [Bentazone, bentazone]",–,–,45.2,60.5,–,–,–,–,–,–,–,–,–,–,–,–,–,–
COC(=O)c1nc(-c2ccc(C(F)(F)F)c(OC)c2F)nc(N)c1OC [Compound 3],–,–,–,–,9,0,0,0,0,0,0,9,9,9,0,–,–,–
COC(=O)c1nc(-c2ccc(C(F)F)c(OC)c2F)nc(N)c1OC [Compound 4],–,–,–,–,9,–,–,–,–,–,–,9,9,9,–,0,–,–
CCOC(=O)c1nc(-c2ccc(C(F)(F)F)c(OC)c2F)nc(N)c1OC [Compound 24],–,–,–,–,9,0,0,0,0,0,0,9,9,9,0,–,–,–
COc1c(N)nc(-c2ccc(C(F)(F)F)c(OC)c2F)nc1C(=O)OCC(F)(F)F [Compound 62],–,–,–,–,9,0,0,0,0,0,0,9,9,9,0,–,–,–
COc1c(N)nc(-c2ccc(C(F)(F)F)c(OC)c2F)nc1C(=O)ON=C(C)C [Compound 106],–,–,–,–,9,0,0,0,0,0,0,9,9,9,0,–,–,–
COc1c(N)nc(-c2ccc(C(F)(F)F)c(OC)c2F)nc1C(=O)OC1CC1 [Compound 116],–,–,–,–,9,0,0,0,0,0,0,9,9,9,0,–,–,–
"CCC(=O)Nc1ccc(Cl)c(Cl)c1 [Propanil, propanil]",–,–,–,–,–,–,–,–,–,–,–,–,–,–,–,–,22.1,37.4
